Values of other authors, collected in US20090239812A1, “USE OF C7 SUGARS IN PREVENTION AND TREATMENT OF MYCOSES” (Laboratoires Expanscience, priority 2006, published 2009).

System: Ehrlich's ascites tumor cells
Details: perseitol associated with a potassium ion; Shibuya et al. 1999

## OCC(O)C(O)C(O)C(O)C(O)CO (stereo not shown) [perseitol, Perseitol]
  incorporation of 3H-leucine: inhibits
